The values below come from article PMC3189933, “Acylpeptide Hydrolase Inhibition as Targeted Strategy to Induce Proteasomal Down-Regulation” (PLoS ONE, 2011).

The structures appear in SMILES notation.

One data set has as its target T1, porcine APEH (Sus scrofa, UniProt P19205).
T1 construct: mammalian APEHs purified from both porcine liver and human colon carcinoma intestinal cells (Caco-2); purchased Takara; host or cells: porcine liver
T1 sequence (P19205 1-732): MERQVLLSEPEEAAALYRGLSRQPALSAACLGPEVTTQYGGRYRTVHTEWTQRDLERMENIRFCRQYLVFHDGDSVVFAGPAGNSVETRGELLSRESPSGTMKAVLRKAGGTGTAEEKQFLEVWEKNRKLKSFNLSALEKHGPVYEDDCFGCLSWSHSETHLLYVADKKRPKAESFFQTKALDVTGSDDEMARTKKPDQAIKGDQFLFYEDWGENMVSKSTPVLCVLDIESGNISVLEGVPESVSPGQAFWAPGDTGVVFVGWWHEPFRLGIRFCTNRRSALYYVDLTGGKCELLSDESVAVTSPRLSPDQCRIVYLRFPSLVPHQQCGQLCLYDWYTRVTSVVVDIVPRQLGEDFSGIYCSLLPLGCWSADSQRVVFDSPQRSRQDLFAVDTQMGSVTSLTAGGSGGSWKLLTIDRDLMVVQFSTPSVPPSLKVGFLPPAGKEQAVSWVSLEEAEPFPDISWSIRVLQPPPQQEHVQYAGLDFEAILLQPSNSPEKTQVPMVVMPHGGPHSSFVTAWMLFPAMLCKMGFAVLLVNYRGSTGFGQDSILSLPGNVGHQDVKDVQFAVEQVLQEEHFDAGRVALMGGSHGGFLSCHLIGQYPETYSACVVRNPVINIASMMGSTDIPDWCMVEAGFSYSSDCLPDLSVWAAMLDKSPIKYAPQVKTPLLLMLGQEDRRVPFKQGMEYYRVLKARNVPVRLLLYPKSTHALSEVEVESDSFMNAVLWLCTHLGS
As to the kind of experiment: Time-dependent inhibition of APEH. The conditions noted are these: pre-incubation at least 20 min at 37°C, then diluted 1:5 into assay mixture with substrate. The format is biochemical. As to the method:
The time-dependent inhibition of SsCEI 4 and t10c12-CLA towards APEH was assessed. Mixtures containing appropriate amounts of each inhibitor and of APEH were pre-incubated for 20 min at 37°C; they were then diluted (1∶5) into the standard assay mixture, which contained the substrate only. The enzymatic activity was followed as described above. Control samples were prepared by pre-incubating the same amounts of APEH without the inhibitors and then diluted in the standard assay mixture.

In another data set the test system is APEH in BHK cells. As to the kind of experiment: APEH activity in BHK cells. The format is cell-based, Baby Hamster. The conditions noted are these: 50 and 100 µM, 48 h. As to the method:
APEH activity was expressed in IU.
The cells were plated in 12-well plates, to a confluence of 60% for the 24-h incubations, and 40% for 48-h exposure to PIs. These treatments were initiated 24-h after the plating of the cells. Phase-contrast images of the cells were taken just before the lysis of the cells for protein analysis, using a Lica DM6000 inverted microscope.

Data set [1] has as its system caspase-3 in Caco-2 cells. As to the kind of experiment: Caspase-3 activity in Caco-2 cells. The format is cell-based, human. The conditions noted are these: 48 h. As to the method:
The pro-apoptotic ability of the peptides and the CLA isomers were assayed by measuring the caspase-3 and caspase-8 activities using fluorometric kits, according to the manufacturer instructions. These assays were based on hydrolysis of the substrate acetyl-Asp-Glu-Val-Asp-7-amido-4-methylcoumarin (Ac-DEVD-AMC) or acetyl-Ile-Glu-Thr-Asp-7-amino-4-methyl coumarin (Ac-IETD-AMC) by caspase-3 and caspase-8, respectively. The release of the 7-AMC moiety in protein extracts prepared from the differently treated cells was evaluated by fluorimetry (excitation 360 nm, emission 460 nm). Their amounts were calculated by means of a standard curve prepared with pure AMC, and following normalisation for protein content, the activities were expressed as nmoles AMC/mg protein/min.

The subject of the next data set is Caco-2 cells. As to the kind of experiment: LDH release cytotoxicity assay in Caco-2 cells. To be noted: 48 h. In general terms: LDH in the medium is a marker of cell lysis.

Turning to `CCCCC/C=C\C=C\CCCCCCCCC(=O)O` [t10c12-CLA, trans10-cis12 CLA], the “inhibition of APEH after pre-incubation with the enzyme” value on porcine APEH is given as 43%. In addition, the “APEH activity in BHK cells” value with APEH in BHK cells is “dose-dependent inhibition”. In data set [1] (200 µM, vs untreated, P<0.01), the caspase-3 activity increase entry is “about two”. In addition, the “caspase-3 activity, dose response” value in data set [1] (increasing concentrations up to 200 µM) is listed as “improved at increasing doses”. In addition, in the data set on Caco-2 cells (200 µM SsCEI 4 or t10c12-CLA, 100 µM ebelactone, MG132 10 µM), the “toxicity (LDH release) compared with MG132” value is “significantly lower than that observed in culture incubated with MG132”. The “cytotoxic effect (LDH activity levels)” value with Caco-2 cells (up to highest concentration 200 µM) is reported as “not associated with any cytotoxic effect”.
